# Measured values taken from PubChem BioAssay AID1845203 (Molecular Pharmacology Branch, DTP, NCI, 2023).
# pIC50: −log10 of the molar value.
# System: G-401 tumor spheroids, viability % test/control
# Assay: Anticancer human tumor G-401 cell line growth inhibition;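 further: spheroids exposed to compound for 7 days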;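 on viability, T/C: 100% = DMSO vehicle-treated spheroids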
# Conditions: spheroids with HUVEC and MSC; for pIC50: curve of first compound; for viability, T/C: stronger effect = lower value
# From the text: Multicellular complex tumor spheroid response to DNA repair inhibitors in combination with DNA-damaging drugs
# This study explores the anticancer activities of DNA-damaging drugs and inhibitors of DNA damage repair, both as single agents and in combinations. Complex tumor spheroids comprised of malignant cells, endothelial cells and mesenchymal stem cells served as an in vitro model for human solid tumors. This model system incorporates physiologically relevant features and patient-derived or established malignant cell lines with clinically relevant genetic alterations from many tumor types. Twenty-six patient-derived or established malignant cell lines were evaluated representing sarcoma, melanoma, small cell lung cancer (SCLC), non-small cell lung cancer (NSCLC), as well as bladder, ovarian and pancreatic cancers. The concentration ranges selected for each drug and investigational agent were based upon clinically achievable concentrations if the clinical Cmax of the agent was known.
# Compounds. The drugs and compounds olaparib (NSC753686), talazoparib (NSC767125), berzosertib (NSC777718), elimusertib (NSC800525), nedisertib (NSC802822), VX-984 (NSC792969), AZD-1390 (NSC803789), temozolomide (NSC362856), topotecan (NSC609699), trabectedin (NSC813783), staurosporine (NSC755774), and gemcitabine (NSC613327) were obtained from the National Cancer Institute (NCI) Developmental Therapeutics Program Chemical Repository. The FDA-approved anticancer drug set is available from the Developmental Therapeutics Program at https://dtp.cancer.gov/organization/dscb/obtaining/available_plates.htm. […] The stock solutions were prepared in dimethyl sulfoxide (DMSO, Sigma-Aldrich, St. Louis, MO, cat. D2650) at 400-fold the tested concentration and stored at -70 degrees C. Prior to their use, the stock solutions were diluted in fresh medium and the final DMSO concentration in the assay was 0.25% (v/v). All drugs and investigational agents were tested over a range starting from a high concentration at or near the clinical Cmax and decreasing in half-log increments. If the clinical Cmax for an agent had not been determined, the highest concentration tested was 10 microM.
# Cell Lines. The patient-derived cancer cell (PDC) lines: 156681-154-R-J1-PDC, 283228-195-R-J1-PDC, 287954-098-R-J1-PDC, 292921-168-R-J2-PDC, 349418-098-R-PDC, 425362-245-T-J1-PDC, 556581-035-R-J1-PDC, and BL0293-F563-PDC were received from the NCI Patient-Derived Models Repository (PDMR, https://pdmr.cancer.gov). The established cell lines HS-SY-2 (RRID:CVCL_8719), MPNST, and SYO-1 (RRID:CVCL_7146) were obtained from the Sloan Kettering Institute. The alveolar soft parts sarcoma cell line ASPS-1 (RRID:CVCL_S738) was established at the NCI and grown from internal seed stocks. The following established cell lines were purchased from the American Type Culture Collection (ATCC, Manassas, VA): G-401 (ATCC, cat. CRL-1441, RRID:CVCL_0270), SW982 (ATCC, cat. HTB-93, RRID:CVCL_1734), VA-ES-BJ (ATCC, cat. CRL-2138, RRID:CVCL_1785), NCI-H719 (ATCC, cat. CRL-5837, RRID:CVCL_1582), NCI-H196 (ATCC, cat. CRL-5823, RRID:CVCL_1509), NCI-H841 (ATCC, cat. CRL-5845, RRID:CVCL_1595), NCI-H1618 (ATCC, cat. CRL-5879, RRID:CVCL_1480), NCI-H1876 (ATCC, cat. CRL-5902, RRID:CVCL_1503), DMS 114 (ATCC, cat. CRL-2066; RRID:CVCL_1174), NCI-H211 (ATCC, cat. CRL-5824; RRID:CVCL_1529), and SW 1271 (ATCC, cat. CRL-2177, RRID:CVCL_1716). The small cell lung cancer cell line COR-L88 was purchased from Sigma-Aldrich (cat. 92031917-1VL, RRID:CVCL_1141). The non-small cell lung cancer cell lines NCI-H226 (RRID:CVCL_1544) and NCI-H322M (RRID:CVCL_1557) were established at the NCI and grown from internal seed stocks. Pooled donor human umbilical vein endothelial cells (HUVEC, Lonza, cat. CC-2519) and human mesenchymal stem cells (hMSC, Lonza, cat. PT-2501) were purchased from Lonza (Walkersville, MD).
# Cell Culture. All cells were maintained in an incubator at 37 degrees C and 5% CO2 with 95% humidity. […]
# [1] = second compound 0.003 µM, first compound 0.00949 µM
# [2] = second compound 0.003 µM, first compound 0.03 µM
# [3] = second compound 0.003 µM, first compound 0.0949 µM
# [4] = second compound 0.003 µM, first compound 0.3 µM
# [5] = second compound 0.003 µM, first compound 0.949 µM
# [6] = second compound 0.003 µM, first compound 3 µM
# [7] = second compound 0.00949 µM, first compound 0.00949 µM
# [8] = second compound 0.00949 µM, first compound 0.03 µM
# [9] = second compound 0.00949 µM, first compound 0.0949 µM
# [10] = second compound 0.00949 µM, first compound 0.3 µM
# [11] = second compound 0.00949 µM, first compound 0.949 µM
# [12] = second compound 0.00949 µM, first compound 3 µM
# [13] = second compound 0.03 µM, first compound 0.00949 µM
# [14] = second compound 0.03 µM, first compound 0.03 µM
# [15] = second compound 0.03 µM, first compound 0.0949 µM
# [16] = second compound 0.03 µM, first compound 0.3 µM
# [17] = second compound 0.03 µM, first compound 0.949 µM
# [18] = second compound 0.03 µM, first compound 3 µM
# [19] = second compound 0.0949 µM, first compound 0.00949 µM
# [20] = second compound 0.0949 µM, first compound 0.03 µM
# [21] = second compound 0.0949 µM, first compound 0.0949 µM
# [22] = second compound 0.0949 µM, first compound 0.3 µM
# [23] = second compound 0.0949 µM, first compound 0.949 µM
# [24] = second compound 0.0949 µM, first compound 3 µM
# [25] = second compound 0.3 µM, first compound 0.00949 µM
# [26] = second compound 0.3 µM, first compound 0.03 µM
# [27] = second compound 0.3 µM, first compound 0.0949 µM
# [28] = second compound 0.3 µM, first compound 0.3 µM
# [29] = second compound 0.3 µM, first compound 0.949 µM
# [30] = second compound 0.3 µM, first compound 3 µM
Compound,pIC50 (second compound 0.003 µM),pIC50 (second compound 0.00949 µM),pIC50 (second compound 0.03 µM),pIC50 (second compound 0.0949 µM),pIC50 (second compound 0.3 µM),"viability, T/C [3] [%]","viability, T/C [4] [%]","viability, T/C [5] [%]","viability, T/C [6] [%]","viability, T/C [9] [%]","viability, T/C [10] [%]","viability, T/C [11] [%]","viability, T/C [12] [%]","viability, T/C [15] [%]","viability, T/C [16] [%]","viability, T/C [17] [%]","viability, T/C [18] [%]","viability, T/C [21] [%]","viability, T/C [22] [%]","viability, T/C [23] [%]",also measured
CNCc1ccc(-c2cc(-c3nc(-c4ccc(S(=O)(=O)C(C)C)cc4)cnc3N)on2)cc1 + CC[C@@]1(O)C(=O)OCc2c1cc1n(c2=O)Cc2cc3c(CN(C)C)c(O)ccc3nc2-1,6.49,> 8.02,> 8.02,> 8.02,> 8.02,81.7,50.5,30.2,21.1,39.5,21.5,16.5,17.1,17.9,19.5,20.8,18.1,12.4,16.4,16.9,"viability, T/C [1]: 82.9%; viability, T/C [2]: 88%; viability, T/C [7]: 43.9%; viability, T/C [8]: 51.2%; viability, T/C [13]: 21%; viability, T/C [14]: 15.8%; viability, T/C [19]: 8.75%; viability, T/C [20]: 8.82%; viability, T/C [24]: 13.3%; viability, T/C [25]: 4.81%; viability, T/C [26]: 6.19%; viability, T/C [27]: 7.23%; viability, T/C [28]: 9.53%; viability, T/C [29]: 9.78%; viability, T/C [30]: 4.97%"
Cn1ncnc1[C@H]1c2n[nH]c(=O)c3cc(F)cc(c23)N[C@@H]1c1ccc(F)cc1 + CC[C@@]1(O)C(=O)OCc2c1cc1n(c2=O)Cc2cc3c(CN(C)C)c(O)ccc3nc2-1,> 8.02,> 8.02,> 8.02,> 8.02,> 8.02,22.9,14.9,13.6,8.75,11.5,10.4,8.82,7.7,6.78,6.5,6.42,5.33,6.01,5.6,5.23,"viability, T/C [1]: 30.3%; viability, T/C [2]: 25.3%; viability, T/C [7]: 14.6%; viability, T/C [8]: 14.9%; viability, T/C [13]: 8.82%; viability, T/C [14]: 7.7%; viability, T/C [19]: 6.07%; viability, T/C [20]: 5.84%; viability, T/C [24]: 3.98%; viability, T/C [25]: 4.4%; viability, T/C [26]: 4.94%; viability, T/C [27]: 4.58%; viability, T/C [28]: 4.17%; viability, T/C [29]: 3.92%; viability, T/C [30]: 2.85%"
O=C(c1cc(Cc2n[nH]c(=O)c3ccccc23)ccc1F)N1CCN(C(=O)C2CC2)CC1 + CC[C@@]1(O)C(=O)OCc2c1cc1n(c2=O)Cc2cc3c(CN(C)C)c(O)ccc3nc2-1,6.00,> 7.02,> 7.02,> 7.02,> 7.02,49.4,51.8,52.1,43.9,18.2,19.1,24,18.4,9.43,10.1,10.1,9.87,7.02,6.74,7.7,"viability, T/C (second compound 0.003 µM, first compound 9.49 µM): 28.3%; viability, T/C (second compound 0.003 µM, first compound 30 µM): 13.6%; viability, T/C (second compound 0.00949 µM, first compound 9.49 µM): 17.2%; viability, T/C (second compound 0.00949 µM, first compound 30 µM): 12.4%; viability, T/C (second compound 0.03 µM, first compound 9.49 µM): 9.41%; viability, T/C (second compound 0.03 µM, first compound 30 µM): 9.05%; viability, T/C [24]: 7.1%; viability, T/C (second compound 0.0949 µM, first compound 9.49 µM): 6.71%; viability, T/C (second compound 0.0949 µM, first compound 30 µM): 7.06%; viability, T/C [27]: 4.94%; viability, T/C [28]: 5.39%; viability, T/C [29]: 5.37%; viability, T/C [30]: 6.35%; viability, T/C (second compound 0.3 µM, first compound 9.49 µM): 5.22%; viability, T/C (second compound 0.3 µM, first compound 30 µM): 6.07%"
